Reference: patent publication US10730866B2, “Indole derivatives and use thereof” (Purdue Pharma L.P., priority 2014, dated 2020)

Legend:
[1] = target: human Nav1.7 (Homo sapiens (Human), UniProt Q15858); test: FLIPR or FLIPR TETRA sodium dye assay for sodium channel blocking activity; assay type: cell-based; details: recombinant HEK293 cells expressing human Nav1.7
Description: In vitro assays were performed in a recombinant cell line expressing cDNA encoding the alpha subunit (Nav1.7, SCN9a, PN1, NE) of human Nav1.7 (Accession No. NM_002977). The cell line was provided by investigators at Yale University (Cummins et al, J. Neurosci. 18(23): 9607-9619 (1998)). For dominant selection of the Nav1.7-expressing clones, the expression plasmid co-expressed the neomycin resistance gene. The cell line was constructed in the human embryonic kidney cell line, HEK293, under the influence of the CMV […] promoter, and stable clones were selected using limiting dilution cloning and antibiotic selection using the neomycin analogue, G418. Recombinant beta and gamma subunits were not introduced into this cell line. Additional cell lines expressing recombinant Nav1.7 cloned from other species can also be used, alone or in combination with various beta subunits, gamma subunits or chaperones.
Unless otherwise noted, cell culture reagents were purchased from Mediatech of Herndon, Va. The recombinant Nav1.7/HEK293 cells were routinely cultured in growth medium consisting of Dulbecco's […] essential medium containing 10% fetal bovine serum (FBS, Hyclone, Thermo Fisher Scientific, Logan, Utah), 100 U/mL penicillin, 100 μg/mL streptomycin, 2-4 mM L-glutamine, and […] G418. For natural, non-recombinant cell lines, the selective antibiotic was omitted, and additional media formulations can be applied as needed.
The final buffer consisted of 20 mM Hepes, pH 7.3, 1.261 mM CaCl2, 0.493 mM MgCl2, 0.407 mM Mg(SO)4, 5.33 mM KCl, 0.441 mM KH2PO4, 137 mM NaCl, 0.336 mM Na2HPO4 and […] D-glucose (Hanks et al., Proc. Soc. Exp. Biol. Med. 71:196 (1949)), and the simple formulation was typically the basic buffer throughout the assay (i.e., all wash and addition steps).
The fluorescence indicator used in the primary fluorescence assay was the cell permeant version of CoroNa™ Green (Invitrogen, Molecular Probes, Eugene, Oreg.), a dye that emits light in the fluorescence range (Harootunian et al., J. Biol. Chem. 264(32):19458-19467 (1989)). The intensity of this emission, but not the wavelength range, is increased when the dye is exposed to Na^+ ions, which it can bind with partial selectivity. Cells expressing Nav1.7 or other sodium channels were loaded with the CoroNa™ Green dye immediately in advance of the fluorescence assay, and then, after agonist stimulation, the mobilization of Na^+ ions was detected as the Na^+ ions flowed from the extracellular fluid into the cytoplasm through the activated sodium channel pores. The dye was stored in the dark as a lyophilized powder, and then an aliquot was dissolved immediately before the cell loading procedure, according to the instructions of the manufacturer, to a stock concentration of 10 mM in DMSO. It was then diluted in the assay buffer to a 4× concentrated working solution, so that the final concentration of dye in the cell loading buffer was 5 μM.
In the fluorescence assays, two agonists were used in combination, namely 1) veratridine; and 2) the venom from the yellow scorpion, Leiurus quinquestriatus hebraeus. Veratridine is an alkaloid small molecule that facilitates the capture of channel openings by inhibiting inactivation, and the scorpion venom is a natural preparation that includes peptide toxins selective for different subsets of voltage-gated sodium channels. These scorpion toxins inhibit the fast inactivation of their cognate target channels. Stock solutions of the agonists were prepared to 40 mM in DMSO (veratridine) and 1 mg/mL in dH2O (scorpion venom), and then diluted to make a 4× or 2× stock (depending on the particular assay) in assay buffer, the final concentration being 100 μM (veratridine) and 10 μg/mL (scorpion venom). Both of the agonists were purchased from Sigma Aldrich, St. Louis, Mo.
Test compounds were dissolved in DMSO to yield 10 mM stock solutions. […]

[2] = target: hNav1.7 (Homo sapiens (Human), UniProt Q15858); test: Electrophysiology (EP) assay, whole-cell patch clamp; assay type: cell-based; details: hNav1.7 expressing HEK-293 cells; affinity for inactivated state; read-out: Nav1.7 Activity (μM) EP assay Ki
Sequence of hNav1.7 (Q15858 other isoform, or with tags, fused parts or gaps): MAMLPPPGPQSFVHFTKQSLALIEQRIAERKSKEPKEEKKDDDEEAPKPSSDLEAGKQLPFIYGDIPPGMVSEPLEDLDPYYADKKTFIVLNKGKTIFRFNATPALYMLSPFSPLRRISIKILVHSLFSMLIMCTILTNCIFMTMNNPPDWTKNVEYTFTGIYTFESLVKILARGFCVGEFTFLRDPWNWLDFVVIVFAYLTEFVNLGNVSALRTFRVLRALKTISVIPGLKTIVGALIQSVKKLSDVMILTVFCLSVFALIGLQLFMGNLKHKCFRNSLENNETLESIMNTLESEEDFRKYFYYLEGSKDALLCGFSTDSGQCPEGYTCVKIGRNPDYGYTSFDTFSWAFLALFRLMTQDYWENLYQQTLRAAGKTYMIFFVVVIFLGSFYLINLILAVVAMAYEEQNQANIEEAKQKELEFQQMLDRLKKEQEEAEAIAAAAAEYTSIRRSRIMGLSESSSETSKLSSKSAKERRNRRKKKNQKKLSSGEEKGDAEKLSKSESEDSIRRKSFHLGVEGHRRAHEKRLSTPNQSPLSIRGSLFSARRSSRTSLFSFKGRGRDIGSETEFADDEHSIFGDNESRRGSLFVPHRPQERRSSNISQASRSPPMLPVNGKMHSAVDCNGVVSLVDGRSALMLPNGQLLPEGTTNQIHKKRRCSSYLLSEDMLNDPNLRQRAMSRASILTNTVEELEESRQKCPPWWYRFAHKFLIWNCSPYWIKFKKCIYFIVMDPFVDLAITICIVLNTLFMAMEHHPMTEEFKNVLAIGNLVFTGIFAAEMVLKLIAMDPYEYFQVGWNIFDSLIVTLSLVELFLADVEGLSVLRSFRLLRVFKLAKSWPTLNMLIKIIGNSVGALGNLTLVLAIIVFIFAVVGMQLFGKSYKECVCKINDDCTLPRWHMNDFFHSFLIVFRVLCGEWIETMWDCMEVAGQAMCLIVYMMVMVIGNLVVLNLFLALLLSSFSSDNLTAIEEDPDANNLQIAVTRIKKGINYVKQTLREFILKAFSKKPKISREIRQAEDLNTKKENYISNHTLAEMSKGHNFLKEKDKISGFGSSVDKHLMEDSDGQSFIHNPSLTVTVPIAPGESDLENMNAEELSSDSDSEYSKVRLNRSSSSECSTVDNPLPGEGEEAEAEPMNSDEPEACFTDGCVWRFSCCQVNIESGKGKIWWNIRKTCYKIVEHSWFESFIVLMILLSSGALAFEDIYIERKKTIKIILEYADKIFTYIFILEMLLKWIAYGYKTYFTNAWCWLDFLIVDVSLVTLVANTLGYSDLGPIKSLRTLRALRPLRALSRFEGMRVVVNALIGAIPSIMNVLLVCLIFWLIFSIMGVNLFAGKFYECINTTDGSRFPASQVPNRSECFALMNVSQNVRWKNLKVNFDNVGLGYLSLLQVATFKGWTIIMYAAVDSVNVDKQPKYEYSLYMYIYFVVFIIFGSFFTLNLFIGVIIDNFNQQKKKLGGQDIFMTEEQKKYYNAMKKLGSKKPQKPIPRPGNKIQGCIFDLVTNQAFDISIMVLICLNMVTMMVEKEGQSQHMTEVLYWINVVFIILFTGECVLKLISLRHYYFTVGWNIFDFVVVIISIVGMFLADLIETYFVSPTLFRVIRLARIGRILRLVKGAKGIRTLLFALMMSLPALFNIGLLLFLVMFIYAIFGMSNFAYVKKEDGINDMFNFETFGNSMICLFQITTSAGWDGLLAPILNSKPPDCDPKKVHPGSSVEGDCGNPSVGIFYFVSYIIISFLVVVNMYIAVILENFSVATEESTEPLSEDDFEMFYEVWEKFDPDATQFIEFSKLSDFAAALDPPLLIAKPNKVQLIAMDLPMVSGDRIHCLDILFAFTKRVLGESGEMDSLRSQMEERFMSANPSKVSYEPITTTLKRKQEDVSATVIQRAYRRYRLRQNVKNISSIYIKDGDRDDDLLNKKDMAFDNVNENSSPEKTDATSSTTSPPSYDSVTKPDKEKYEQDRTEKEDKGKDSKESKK
Description: The hNav1.7 expressing HEK-293 cells are plated on 35 mm culture dishes pre-coated with poly-D-lysine in standard DMEM culture media (Mediatech, Inc., Herndon, Va.) and incubated in a 5% CO2 incubator at 37° C. Cultured cells are used approximately 12-48 hours after plating.
The hNav1.7 expressing HEK-293 cells are plated on tissue culture flasks in standard DMEM culture media (Mediatech, Inc.) and incubated in a 5% CO2 incubator at 37° C. Cultured cells are used approximately 12-48 hours after plating.
On the day of experimentation, the 35 mm dish is placed on the stage of an inverted microscope equipped with a perfusion system that continuously perfuses the culture dish with fresh recording media. A gravity driven superfusion system is used to apply test solutions directly to the cell under evaluation. This “shooter” system consists of an array of glass pipettes connected to a motorized horizontal translator. The outlet of the shooter is positioned approximately 100 μm from the cell of interest.
Whole cell currents are recorded using the whole-cell patch clamp configuration using an Axopatch 200B amplifier (Axon Instruments, Foster City Calif.), 1322A A/D converter (Axon Instruments) and pClamp software (v. 8; Axon Instruments) and stored on a personal computer. Gigaseals are formed and the whole-cell configuration is established in voltage clamp mode, and membrane currents generated by hNav1.7 channels are recorded. Borosilicate glass pipettes with resistance values between 1.5 and 2.0 MΩ when filled with pipette solution are used and series resistance (<5 MΩ) is compensated by 75-80%. Signals are sampled at 50 kHz and low pass filtered at 3 kHz.
Whole cell currents are recorded using the whole-cell patch clamp configuration using an Patchliner (Nanion Technologies, Munich Germany), EPC 10 quadro amplifiers (HEKA, Bellmore, N.Y.) and PatchControl HT 10905 (Nanion Technologies) and PatchMaster v2x73 software (HEKA) and stored on a personal computer. Gigaseals are formed and the whole-cell configuration is established in voltage clamp mode, and membrane currents generated by hNav1.7 are recorded. NPC-16 chips have resistance values between 1.0 and 2.0 MΩ when filled with pipette solution and series resistance (<5 MΩ). Signals are sampled at 25 kHz and low pass filtered at 3 kHz.
After establishing the whole-cell configuration in voltage clamp mode, voltage protocols are run to establish the 1) test potential (Vmax), 2) holding potential (Vh), and 3) the conditioning potential for each cell.
After establishing the whole-cell configuration in voltage clamp mode, a standard I-V protocol is run to determine the potential at which the maximal current (Imax) is elicited. This potential is the test potential (Vt). To determine a conditioning potential at which 100% of channels are in the inactivated state, a standard steady-state inactivation (SSIN) protocol is run using a series of fifteen 100 ms-long depolarizing prepulses, incrementing in 10 mV steps, immediately followed by a 5 ms testing pulse to Vmax. This protocol also permits determination of the holding potential at which all channels are in the resting state.
For compounds causing significant retardation of recovery from inactivation, an estimate of the affinity for the inactivated state of the channel (Ki) is generated using the following protocol. From the negative, no residual inactivation, holding potential, the cell is depolarized to the conditioning voltage for 2-5 seconds, returned to the negative holding potential for 10-20 ms to relieve fast inactivation and then depolarized to the test potential for ˜15 ms. This voltage protocol is repeated every 10-15 seconds, first to establish a baseline in the absence of the test compound, then in the presence of the test compound.
After a stable baseline is established, the test compound is applied and block of the current elicited by the test pulse assessed. […]

Sequence of human Nav1.7 (Q15858 other isoform, or with tags, fused parts or gaps): as above

Row | Compound | IC50 [1] [µM] | Ki [2] [µM]
1 | CC(C)Cn1ccc2cc(-c3cccc(S(=O)(=O)Nc4ncns4)n3)ccc21 [Compound 41, 6-(1-isobutyl-1H-indol-5-yl)-N-(1,2,4-thiadiazol-5-yl)pyridine-2-sulfonamide] | 0.514 ± 0.054 | 0.322 ± 0.113
2 | NC(=O)c1cc(N[C@H]2CCNC2=O)nc(-c2ccc3ncn(-c4ccc(C(F)(F)F)cc4)c3c2)n1 [Compound 44, (S)-6-((2-oxopyrrolidin-3-yl)amino)-2-(1-(4-(trifluoromethyl)phenyl)-1H-benzo[d]imidazol-6-yl)pyrimidine-4-carboxamide] | 1.72 ± 0.156 | 1.54 ± 0.446
3 | O=C(Nc1ccc(C(F)(F)F)cc1)c1cc(N[C@H]2CCNC2=O)nc(-c2ccc3[nH]ccc3c2)n1 [Compound 78, (S)-2-(1H-indol-5-yl)-6-((2-oxopyrrolidin-3-yl)amino)-N-(4-(trifluoromethyl)phenyl)pyrimidine-4-carboxamide] | 1.83 ± 0.459 | 1.28 ± 0.48
4 | NC(=O)c1cccc(-c2ccc3c(cnn3Cc3ccc(C(F)(F)F)cc3)c2)n1 [Compound 105, 6-(1-(4-(trifluoromethyl)benzyl)-1H-indazol-5-yl)picolinamide] | 0.897 ± 0.114 | 0.7 ± 0.049
5 | OC[C@@H](O)c1cccc(-c2cnc3c(ccn3Cc3ccc(C(F)(F)F)cc3)c2)n1 [Compound 106, (S)-1-(6-(1-(4-(trifluoromethyl)benzyl)-1H-pyrrolo[2,3-b]pyridin-5-yl)pyridin-2-yl)ethane-1,2-diol] | 1.33 ± 0.164 | 0.286 ± 0.027
6 | OC[C@@H](O)c1cccc(-c2ccc3c(cnn3Cc3ccc(C(F)(F)F)cc3)c2)n1 [Compound 107, (S)-1-(6-(1-(4-(trifluoromethyl)benzyl)-1H-indazol-5-yl)pyridin-2-yl)ethane-1,2-diol] | 1.09 ± 0.077 | 0.534 ± 0.032
7 | NC(=O)c1cc([C@@H](O)CO)cc(-c2ccc3c(ccn3Cc3ccc(C(F)(F)F)cc3)c2)n1 [Compound 120, (R)-4-(1,2-dihydroxyethyl)-6-(1-(4-(trifluoromethyl)benzyl)-1H-indol-5-yl)picolinamide] | 1.91 ± 0.458 | 2.03 ± 0.608
8 | NC(=O)c1cc(-c2ccc3c(ccn3Cc3ccc(C(F)(F)F)cc3)c2)cc([C@H](O)CO)n1 [Compound 123, (S)-6-(1,2-dihydroxyethyl)-4-(1-(4-(trifluoromethyl)benzyl)-1H-indol-5-yl)picolinamide] | 1.52 ± 0.152 | 1.02 ± 0.368
9 | CC(C)Cn1ccc2cc(-c3cccc([C@H](O)[C@@H](O)C(N)=O)n3)ccc21 [Compound 150, (2R,3S)-2,3-dihydroxy-3-(6-(1-isobutyl-1H-indol-5-yl)pyridin-2-yl)propanamide] | 1.38 ± 0.146 | 0.678 ± 0.172
10 | NC(=O)[C@H](O)[C@@H](O)c1cccc(-c2ccc3c(ccn3CC3CC3)c2)n1 [Compound 154, (2R,3S)-3-(6-(1-(cyclopropylmethyl)-1H-indol-5-yl)pyridin-2-yl)-2,3-dihydroxypropanamide] | 10 to 20 | 27.2 ± 8.2
11 | CC(C)Cn1ncc2cc(-c3cccc([C@H](O)[C@@H](O)C(N)=O)n3)ccc21 [Compound 155, (2R,3S)-2,3-dihydroxy-3-(6-(1-isobutyl-1H-indazol-5-yl)pyridin-2-yl)propanamide] | > 20 | 10.6 ± 3.9
